According to PubChem BioAssay AID1745844 (Carcinogenic Potency Database (CPDB), 2022):
Activity calls are given as the source filed them. How the calls were made is not given here.

Test system: rodent lifetime carcinogenesis bioassay, tumor incidence TD50
Assay: chronic cancer bioassays in animals – CPDB, compiled studies (AID 1745844)

Nc1ccccc1-c1ccccc1
TD50 (mouse, strain B6C3F1, females, in feed, site: all sites, lesion: angiosarcoma + hemangioma, dosed 103 weeks, study length 104 weeks): 1120 mg/kg/day
TD50 (mouse, strain B6C3F1, females, in feed, site: all sites, lesion: angiosarcoma, dosed 103 weeks, study length 104 weeks): 1280 mg/kg/day
TD50 (mouse, strain B6C3F1, females, in feed, site: any site (literature study), lesion: several types, types named in the paper, dosed 103 weeks, study length 104 weeks): 1880 mg/kg/day
TD50 (mouse, strain B6C3F1, females, in feed, site: liver, lesion: hepatocellular adenoma + hepatocellular carcinoma + neoplastic nodule, dosed 103 weeks, study length 104 weeks): 2000 mg/kg/day
TD50 (mouse, strain B6C3F1, females, in feed, site: lung, lesion: alveolar/bronchiolar adenoma + alveolar/bronchiolar carcinoma, dosed 103 weeks, study length 104 weeks): 26100 mg/kg/day
TD50 (mouse, strain B6C3F1, males, in feed, site: all sites, lesion: angiosarcoma + hemangioma + hemangiosarcoma, dosed 103 weeks, study length 104 weeks): 1250 mg/kg/day
TD50 (mouse, strain B6C3F1, males, in feed, site: all sites, lesion: angiosarcoma + hemangiosarcoma, dosed 103 weeks, study length 104 weeks): 1810 mg/kg/day
TD50 (mouse, strain B6C3F1, males, in feed, site: any site (literature study), lesion: several types, types named in the paper, dosed 103 weeks, study length 104 weeks): 720 mg/kg/day
TD50 (mouse, strain B6C3F1, males, in feed, site: liver, lesion: hepatocellular adenoma + hepatocellular carcinoma + neoplastic nodule, dosed 103 weeks, study length 104 weeks): 1700 mg/kg/day
carcinogen call (rat, strain Fischer 344, females, in feed, site: any site (literature study), lesion: several types, types named in the paper, dosed 103 weeks, study length 105 weeks): negative (inactive)
TD50 (rat, strain Fischer 344, females, in feed, site: liver, lesion: hepatocellular adenoma + hepatocellular carcinoma + neoplastic nodule, dosed 103 weeks, study length 105 weeks): 363 mg/kg/day
carcinogen call (rat, strain Fischer 344, males, in feed, site: any site (literature study), lesion: several types, types named in the paper, dosed 103 weeks, study length 104 weeks): negative (inactive)

CCCCN(N=O)C(N)=O
TD50 (rat, strain F344/DuCrj, females, in drinking water, site: all sites, lesion: several types, types named in the paper, dosed 50 weeks, study length 50 weeks): 24.7 mg/kg/day
TD50 (rat, strain F344/DuCrj, females, in drinking water, site: digestive tract, lesion: several types, types named in the paper, dosed 50 weeks, study length 50 weeks): 1.3 mg/kg/day
TD50 (rat, strain F344/DuCrj, females, in drinking water, site: ear duct, lesion: several types, types named in the paper, dosed 50 weeks, study length 50 weeks): 11.6 mg/kg/day
TD50 (rat, strain F344/DuCrj, females, in drinking water, site: ear duct, lesion: squamous-cell carcinoma, sebaceous, dosed 50 weeks, study length 50 weeks): 19.4 mg/kg/day
TD50 (rat, strain F344/DuCrj, females, in drinking water, site: esophagus, lesion: papilloma, dosed 50 weeks, study length 50 weeks): 6.58 mg/kg/day
TD50 (rat, strain F344/DuCrj, females, in drinking water, site: esophagus, lesion: several types, types named in the paper, dosed 50 weeks, study length 50 weeks): 3.21 mg/kg/day
TD50 (rat, strain F344/DuCrj, females, in drinking water, site: esophagus, lesion: squamous-cell carcinoma, dosed 50 weeks, study length 50 weeks): 8.05 mg/kg/day
TD50 (rat, strain F344/DuCrj, females, in drinking water, site: forestomach, lesion: papilloma, dosed 50 weeks, study length 50 weeks): 4 mg/kg/day
TD50 (rat, strain F344/DuCrj, females, in drinking water, site: forestomach, lesion: several types, types named in the paper, dosed 50 weeks, study length 50 weeks): 2.43 mg/kg/day
TD50 (rat, strain F344/DuCrj, females, in drinking water, site: forestomach, lesion: squamous-cell carcinoma, dosed 50 weeks, study length 50 weeks): 10.2 mg/kg/day
TD50 (rat, strain F344/DuCrj, females, in drinking water, site: pharynx, lesion: several types, types named in the paper, dosed 50 weeks, study length 50 weeks): 8.05 mg/kg/day
TD50 (rat, strain F344/DuCrj, females, in drinking water, site: pharynx, lesion: squamous-cell carcinoma, dosed 50 weeks, study length 50 weeks): 10.2 mg/kg/day
TD50 (rat, strain F344/DuCrj, females, in drinking water, site: tongue, lesion: papilloma, dosed 50 weeks, study length 50 weeks): 13.5 mg/kg/day
TD50 (rat, strain F344/DuCrj, females, in drinking water, site: tongue, lesion: several types, types named in the paper, dosed 50 weeks, study length 50 weeks): 10.2 mg/kg/day
TD50 (rat, strain F344/DuCrj, females, in drinking water, site: vagina, lesion: papilloma, dosed 50 weeks, study length 50 weeks): 6 mg/kg/day
TD50 (rat, strain F344/DuCrj, females, in drinking water, site: vagina, lesion: several types, types named in the paper, dosed 50 weeks, study length 50 weeks): 5.05 mg/kg/day
TD50 (rat, strain F344/DuCrj, males, in drinking water, site: all sites, lesion: several types, types named in the paper, dosed 50 weeks, study length 50 weeks): 10.2 mg/kg/day
TD50 (rat, strain F344/DuCrj, males, in drinking water, site: digestive tract, lesion: several types, types named in the paper, dosed 50 weeks, study length 50 weeks): 0.91 mg/kg/day
TD50 (rat, strain F344/DuCrj, males, in drinking water, site: duodenum, lesion: several types, types named in the paper, dosed 50 weeks, study length 50 weeks): 11.8 mg/kg/day
TD50 (rat, strain F344/DuCrj, males, in drinking water, site: ear duct, lesion: several types, types named in the paper, dosed 50 weeks, study length 50 weeks): 11.8 mg/kg/day
TD50 (rat, strain F344/DuCrj, males, in drinking water, site: esophagus, lesion: papilloma, dosed 50 weeks, study length 50 weeks): 4.08 mg/kg/day
TD50 (rat, strain F344/DuCrj, males, in drinking water, site: esophagus, lesion: several types, types named in the paper, dosed 50 weeks, study length 50 weeks): 3.02 mg/kg/day
TD50 (rat, strain F344/DuCrj, males, in drinking water, site: esophagus, lesion: squamous-cell carcinoma, dosed 50 weeks, study length 50 weeks): 17 mg/kg/day
TD50 (rat, strain F344/DuCrj, males, in drinking water, site: forestomach, lesion: papilloma, dosed 50 weeks, study length 50 weeks): 3.25 mg/kg/day
TD50 (rat, strain F344/DuCrj, males, in drinking water, site: forestomach, lesion: several types, types named in the paper, dosed 50 weeks, study length 50 weeks): 2.62 mg/kg/day
TD50 (rat, strain F344/DuCrj, males, in drinking water, site: palate, soft, lesion: several types, types named in the paper, dosed 50 weeks, study length 50 weeks): 11.8 mg/kg/day
TD50 (rat, strain F344/DuCrj, males, in drinking water, site: palate, soft, lesion: squamous-cell carcinoma, dosed 50 weeks, study length 50 weeks): 17 mg/kg/day
TD50 (rat, strain Fischer 344, females, by gavage, site: colon, lesion: one or several types, types not named, dosed 40 weeks, study length 104 weeks): 2.31 mg/kg/day
TD50 (rat, strain Fischer 344, females, by gavage, site: forestomach, lesion: one or several types, types not named, dosed 40 weeks, study length 104 weeks): 0.267 mg/kg/day
TD50 (rat, strain Fischer 344, females, by gavage, site: lung, lesion: several types, types named in the paper, dosed 40 weeks, study length 104 weeks): 0.277 mg/kg/day
TD50 (rat, strain Fischer 344, females, by gavage, site: mammary gland, lesion: adenocarcinoma, dosed 40 weeks, study length 104 weeks): 0.758 mg/kg/day
TD50 (rat, strain Fischer 344, females, by gavage, site: uterus, lesion: several types, types named in the paper, dosed 40 weeks, study length 104 weeks): 0.551 mg/kg/day
TD50 (rat, strain Fischer 344, males, by gavage, site: colon, lesion: one or several types, types not named, dosed 40 weeks, study length 104 weeks): 1.61 mg/kg/day
TD50 (rat, strain Fischer 344, males, by gavage, site: forestomach, lesion: one or several types, types not named, dosed 40 weeks, study length 104 weeks): 0.259 mg/kg/day
TD50 (rat, strain Fischer 344, males, by gavage, site: lung, lesion: several types, types named in the paper, dosed 40 weeks, study length 104 weeks): 0.187 mg/kg/day
TD50 (rat, strain MRC-Wistar, females, in drinking water, site: all sites, lesion: myelocytic leukemia, dosed 39 weeks, study length 85 weeks): 3.27 mg/kg/day
TD50 (rat, strain MRC-Wistar, females, in drinking water, site: any site (literature study), lesion: one or several types, types not named, dosed 39 weeks, study length 85 weeks): 1.02 mg/kg/day
TD50 (rat, strain MRC-Wistar, females, in drinking water, site: liver, lesion: one or several types, types not named, dosed 39 weeks, study length 85 weeks): 6.63 mg/kg/day
TD50 (rat, strain MRC-Wistar, females, in drinking water, site: mammary gland, lesion: one or several types, types not named, dosed 39 weeks, study length 85 weeks): 6.63 mg/kg/day (inactive)
TD50 (rat, strain MRC-Wistar, males, in drinking water, site: all sites, lesion: myelocytic leukemia, dosed 39 weeks, study length 85 weeks): 2.86 mg/kg/day
TD50 (rat, strain MRC-Wistar, males, in drinking water, site: any site (literature study), lesion: one or several types, types not named, dosed 39 weeks, study length 85 weeks): 1.64 mg/kg/day
TD50 (rat, strain MRC-Wistar, males, in drinking water, site: liver, lesion: one or several types, types not named, dosed 39 weeks, study length 85 weeks): 26.1 mg/kg/day

O=[N+]([O-])c1ccc(O)c([N+](=O)[O-])c1
carcinogen call (mouse, strain DBA, females, in feed, site: mammary gland, lesion: carcinoma, dosed 90 weeks, study length 90 weeks): negative (inactive)
